Reference: PubChem BioAssay (NCI)
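Protocol summary: plate cells (96-well), add compound at 5 concentrations, incubate 48 h, interpolate endpoints linearly. The concentration for full growth arrest is given as TGI.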

Columns and labels:
Test in all cases: inhibition of tumour cell growth, NCI panel, 48 h
OVCAR-3 ovarian = tested on: OVCAR-3 ovarian
CAKI-1 renal = tested on: CAKI-1 renal
SF-268 CNS = tested on: SF-268 CNS
SK-MEL-2 melanoma = tested on: SK-MEL-2 melanoma
M14 melanoma = tested on: M14 melanoma
HOP-62 NSCLC = tested on: HOP-62 NSCLC
OVCAR-4 ovarian = tested on: OVCAR-4 ovarian
UACC-257 melanoma = tested on: UACC-257 melanoma
U251 CNS = tested on: U251 CNS
ACHN renal = tested on: ACHN renal
SK-MEL-28 melanoma = tested on: SK-MEL-28 melanoma
SK-MEL-5 melanoma = tested on: SK-MEL-5 melanoma
HT29 colon = tested on: HT29 colon
HL-60(TB) leukemia = tested on: HL-60(TB) leukemia
CCRF-CEM leukemia = tested on: CCRF-CEM leukemia
MDA-MB-435 = tested on: MDA-MB-435
UACC-62 melanoma = tested on: UACC-62 melanoma
SK-OV-3 ovarian = tested on: SK-OV-3 ovarian
SNB-19 CNS = tested on: SNB-19 CNS
MALME-3M melanoma = tested on: MALME-3M melanoma

Structure (SMILES) | TGI (OVCAR-3 ovarian) [µM] | TGI (CAKI-1 renal) [µM] | TGI (SF-268 CNS) [µM] | TGI (SK-MEL-2 melanoma) [µM] | TGI (M14 melanoma) [µM] | TGI (HOP-62 NSCLC) [µM] | TGI (OVCAR-4 ovarian) [µM] | TGI (UACC-257 melanoma) [µM] | TGI (U251 CNS) [µM] | TGI (ACHN renal) [µM] | TGI (SK-MEL-28 melanoma) [µM] | TGI (SK-MEL-5 melanoma) [µM] | TGI (HT29 colon) [µM] | TGI (HL-60(TB) leukemia) [µM] | TGI (CCRF-CEM leukemia) [µM] | TGI (MDA-MB-435) [µM] | TGI (UACC-62 melanoma) [µM] | TGI (SK-OV-3 ovarian) [µM] | TGI (SNB-19 CNS) [µM] | TGI (MALME-3M melanoma) [µM]
Brc1ccc(-c2nc(-c3ccc(Br)cc3)n(-c3ccccc3)n2)cc1 | > 100 | > 100 | > 100 | > 100 | > 100 | > 100 | > 100 | > 100 | > 100 | > 100 | > 100 | > 100 | > 100 | > 100 | > 100 | > 100 | > 100 | > 100 | > 100 | –
CC(=O)N1c2ccccc2[C@H]2CCc3c([nH]c4ccccc34)[C@H]21 | 31.6 | 64.4 | 52.3 | 74.1 | 30.9 | 28.1 | – | > 100 | 26.5 | > 100 | 31.1 | 26.2 | 44.7 | 34.2 | 40.2 | 42.5 | 27.7 | > 100 | > 100 | 30.7
CCCCC1Cc2cc(OC)ccc2-c2n1c1cc(OC)ccc1[n+]2C (stereo not drawn) (tested in a mixture with another compound) | > 72.1 | > 100 | 6.09 | 13 | 25.7 | > 61.7 | 20.7 | > 34.3 | > 26.5 | 48 | 25.8 | 3.76 | > 29.2 | 1.71 | 25.3 | 3.79 | 3.03 | 54.1 | – | 9.71
C=CC1(O)CCCC=C1COCc1ccccc1 (stereo not drawn) | – | > 100 | > 100 | > 100 | > 100 | > 100 | > 100 | > 100 | > 100 | > 100 | > 100 | > 100 | > 100 | 72.2 | > 100 | > 100 | > 100 | > 100 | > 100 | > 100
O=c1[nH]nc(Cc2ccccc2)n1C1CC1 | > 100 | > 100 | > 100 | – | > 100 | > 100 | > 100 | > 100 | > 100 | > 100 | > 100 | > 100 | > 100 | > 100 | > 100 | > 100 | > 100 | > 100 | > 100 | > 100
O=C([O-])C1([n+]2c(-c3ccccc3)cc(-c3ccccc3)cc2-c2ccccc2)CC1 | > 100 | – | > 100 | – | > 100 | > 100 | > 100 | > 100 | > 100 | > 100 | > 100 | > 100 | > 100 | 68.4 | > 100 | 50.7 | 67.7 | – | > 100 | > 100
Nc1ncc(Sc2ccccc2C(=O)O)s1 | > 100 | > 100 | > 100 | > 100 | > 100 | > 100 | – | > 100 | > 100 | > 100 | > 100 | > 100 | > 100 | > 100 | > 100 | > 100 | > 100 | – | > 100 | –
COC1(c2ccccc2)NC(=S)NN=C1c1ccccc1 (stereo not drawn) | 84.6 | > 100 | > 100 | 75.8 | > 100 | > 100 | – | > 100 | 46.6 | > 100 | > 100 | 80.7 | > 100 | 54.5 | > 100 | 39.1 | > 100 | 78.4 | > 100 | > 100
CC(=O)c1sc2c(c1O)c(=O)n(-c1ccccc1)c(=S)n2-c1ccccc1 | > 100 | – | > 100 | > 100 | > 100 | – | > 100 | > 100 | > 100 | – | > 100 | > 100 | > 100 | > 100 | – | > 100 | > 100 | – | > 100 | > 100
Cc1cc(C)nc(NC(=S)Nc2ccc(Cl)cc2)c1 | > 100 | > 100 | > 100 | > 100 | > 100 | > 100 | 61.1 | > 100 | > 100 | – | > 100 | > 100 | > 100 | > 100 | > 100 | > 100 | > 100 | > 100 | > 100 | > 100
CC(C)CCCC(C)[C@H]1CCC2[C@@H]3CCC4Cc5nc6c(nc5C[C@]4(C)C3CC[C@@]21C)CC1CC[C@@H]2C(CC[C@@]3(C)C2CC[C@@H]3O)[C@@]1(C)C6 (stereo partly drawn) | > 100 | – | > 100 | > 100 | > 100 | > 100 | > 100 | > 100 | > 100 | > 100 | > 100 | > 100 | > 100 | > 100 | > 100 | > 100 | > 100 | > 100 | > 100 | > 100
O=C(/C=C/c1cccs1)c1ccc([N+](=O)[O-])cc1 | – | > 100 | > 100 | > 100 | > 100 | > 100 | > 100 | > 100 | > 100 | > 100 | > 100 | > 100 | > 100 | > 100 | > 100 | > 100 | > 100 | > 100 | > 100 | > 100
O=C(Nc1ccc(Cl)c(C(F)(F)F)c1)C(=O)c1c(O)c2ccccc2oc1=O | > 100 | > 100 | > 100 | > 100 | > 100 | > 100 | > 100 | > 100 | > 100 | > 100 | > 100 | > 100 | > 100 | – | > 100 | > 100 | > 100 | > 100 | > 100 | > 100
CC1(CCCCO)C=CC(S(=O)(=O)c2ccccc2)CC1 (stereo not drawn) | 19 | 23.9 | 12.4 | 23.1 | 12.2 | 12.1 | 22.8 | 10.9 | 21.5 | 18.1 | 28.5 | 15.4 | 5.91 | – | 11.2 | 21.8 | 18.3 | 22.7 | 26.6 | 12.1
CC(=O)O[C@H]1C[C@@H](OC(C)=O)[C@@](C)(O)[C@@H]2[C@@H](OC(C)=O)[C@@]3(O)[C@H](/C=C(/CCl)[C@H]4O[C@H]4[C@@H](OC(C)=O)[C@@]12C)OC(=O)[C@@H]3C | > 25 | > 25 | > 25 | > 25 | > 25 | > 25 | > 25 | > 25 | > 25 | > 25 | > 25 | > 25 | > 25 | – | > 25 | > 25 | > 25 | > 25 | > 25 | > 25
CCOP(=O)(/C=C/n1cnc2c(=O)n(C(C)=O)c(N)nc21)OCC | > 100 | > 100 | > 100 | > 100 | > 100 | > 100 | > 100 | > 100 | > 100 | > 100 | > 100 | > 100 | > 100 | > 100 | > 100 | > 100 | > 100 | > 100 | > 100 | –
O=C1Nc2ccccc2C1S(=O)(=O)c1ccccc1 (stereo not drawn) | > 100 | > 100 | > 100 | > 100 | > 100 | > 100 | > 100 | > 100 | > 100 | > 100 | > 100 | > 100 | > 100 | – | > 100 | > 100 | > 100 | > 100 | > 100 | > 100
COC(=O)[C@]1(C)CCCC2(C)C3=C(CCC21)CC1(CC3)SCCS1 (stereo partly drawn) | > 10 | > 10 | > 10 | – | > 10 | > 10 | > 10 | > 10 | > 10 | > 10 | > 10 | > 10 | > 10 | > 10 | > 10 | > 10 | > 10 | > 10 | > 10 | > 10
Clc1cccc2[nH]ncc12 | > 100 | > 100 | – | > 100 | – | > 100 | > 100 | > 100 | > 100 | > 100 | > 100 | > 100 | > 100 | > 100 | > 100 | > 100 | > 100 | > 100 | > 100 | –
Cc1ccc(C=C(C(=O)O)C(=O)O)o1 | > 100 | > 100 | > 100 | > 100 | > 100 | > 100 | – | > 100 | > 100 | > 100 | > 100 | > 100 | > 100 | > 100 | > 100 | > 100 | > 100 | > 100 | > 100 | > 100
CC(N)=O.[Cl][Pt][Cl].[NH-]c1ccn(C2OC(CO)C(O)C2O)c(=O)n1 (stereo not drawn) | > 100 | > 100 | > 100 | > 100 | > 100 | > 100 | > 100 | > 100 | > 100 | > 100 | > 100 | > 100 | > 100 | – | > 100 | > 100 | > 100 | > 100 | > 100 | > 100
CON(C)C(=O)C(C)NC(=O)OC(C)(C)C (stereo not drawn) | > 100 | – | > 100 | – | > 100 | > 100 | – | > 100 | > 100 | > 100 | > 100 | > 100 | > 100 | > 100 | > 100 | > 100 | > 100 | > 100 | > 100 | > 100
C=CCCCCCCCCC(=O)ON(Cc1ccc(O)c(OC)c1)C(=O)C(F)(F)F | – | – | > 100 | – | > 100 | > 100 | > 100 | > 100 | > 100 | > 100 | > 100 | > 100 | > 100 | > 100 | > 100 | > 100 | > 100 | > 100 | > 100 | > 100
NC(N)=N/N=C\c1c(-c2ccccc2)nc2sccn12 | – | 29.6 | 29.9 | 28.6 | – | 29.1 | 29.5 | 26.3 | 28.5 | 30.6 | 29.1 | 29.2 | 28.6 | 53.3 | 73.3 | 29.2 | 29.4 | 33.2 | 27.3 | 30
CC(=O)OC1CC[C@@]2(C)C(=CC[C@@H]3[C@@H]2CC[C@]2(C)C(OC(C)=O)[C@H](n4ccnc4)C[C@@H]32)C1 (stereo partly drawn) | – | > 100 | > 100 | 34.2 | 31.2 | – | 46.6 | 31.1 | > 100 | > 100 | 31.5 | 30.3 | 23.7 | 35.6 | 37.1 | 31.6 | 30.3 | – | > 100 | 28.3
